# From article PMC13058460, “PET-MRI biomarkers reveal efficacy of a novel NLRP3 inhibitor in Parkinson’s disease models” (Brain, 2025)
# Like-named read-outs stand apart in the source and are kept apart here.
# Tests used:
# [1] = target: CYP2C9 (Homo sapiens, UniProt P11712); experiment: CYP2C9 inhibition
# Experimental: (§3) LM – Liver microsome (half-life in minutes)
# PPB – Plasma Protein Binding
# (§4) PS – Plasma Stability (% remaining at 2 hours)
# [2] = Mouse liver microsome stability; conditions: liver microsomes
# Experimental: as §3
# PPB – Plasma Protein Binding
# as §4
# [3] = target: hERG (human ether-a-go-go K+ ion channel) (Homo sapiens, UniProt Q12809); experiment: hERG QPatch assay
# Experimental: as §3
# PPB – Plasma Protein Binding
# as §4
# [4] = Mouse plasma stability; conditions: % remaining at 2 hours
# Experimental: as §3
# PPB – Plasma Protein Binding
# as §4
# [5] = test system: 6-OHDA Parkinson's mouse model; experiment: 6-OHDA Parkinson's mouse model, oral gavage dose response (rotations, striatal dopamine); conditions: for ED50: Mus musculus
# Experimental: 6-hydroxydopamine (6-OHDA; Sigma) was dissolved in saline with 0.2% ascorbic acid to a final injected dose of 12 μg as previously described.[18]
# Mice received analgesics and fluids and were placed on a heat pad until recovery.
# D-amphetamine (2 mg/kg) was administered either 17 or 21 days post-6-OHDA; net ipsilateral turns over 10 min were recorded.
# Striatal dopamine and metabolites were quantified by LC-MS/MS as previously described.[36]
# (B) Amphetamine-induced ipsilateral rotations at Day 21, and (C–E) levels of striatal dopamine, 3,4-dihydroxyphenylacetic acid (DOPAC) and homovanillic acid (HVA) 28 days following saline or 6-OHDA injection. […] Data in B–E are presented as box-whisker plot with median (line), 25th to 75th percentiles (box) and full range (whiskers) shown. **P < 0.01, ***P < 0.001 by one-way ANOVA (two-tailed), and Dunnett’s post-test comparing to untreated 6-OHDA group.
# administration to fasted 8–10-week-old C57BL/6J male mice was performed using an adapted method as previously described (30). At the relevant time point following dosing, blood samples were collected for plasma and the brain perfused with PBS for 5 min; CSF was also collected from separate groups of mice. Brain homogenates were prepared from dissected brains by homogenizing total brain (0.5 g) with four volumes (2 mL) of deionized water.
# C57BL/6J mice were anaesthetized using ketamine hydrochloride (100 mg/kg) and xylazine (10 mg/kg), and were placed into a stereotactic frame with nose and ear bars specially adapted for mice. A digital stereotaxic instrument was used with a 5 μL Hamilton syringe to deliver either a sterile saline solution (0.9% sodium chloride) containing 0.2% ascorbic acid, 6-hydroxydopamine (6-OHDA; 12 μg) dissolved in saline containing 0.2% ascorbic acid, α-synuclein pre-formed fibrils (PFF-Syn; 8 μg in PBS), or PBS alone, into the right dorsal striatum of mice at the following stereotaxic coordinates relative to bregma (mm): -2.0 medial-lateral, + 0.5 anterior-posterior, -3.0 mm dorsal-ventral below the pial surface. After drilling a 1 mm burr-hole in the skull, a 2 μl volume of solution was infused at the target site at the rate of 0.5 μl per minute. The needle was held in place for at least 5 minutes after injection to minimize retrograde flow along the needle tract. Mice were given a subcutaneous injection of sterile Ringer ’s solution to help facilitate recovery and carprofen (5 mg/kg) for post-operative pain relief and were placed on a heat-pad until complete recovery from anaesthesia.
# 8-10 week-old C57BL/6J male mice were housed under a 12-hr light cycle in a SPF climate-controlled facility with food and water provided ad libitum for two weeks prior to study initiation.
# mg/kg), or by drinking water (0.3mg/ml), with studies performed at UQ or by CROs. […]
# [6] = test system: PFF-Syn mouse model; experiment: PFF-Syn Parkinson's disease mouse model, preventative and therapeutic dosing in drinking water; assay type: in vivo
# Experimental: Recombinant human α-synuclein (rPeptide) was incubated in PBS at 37°C, 400 rpm, for 7 days with daily sonication cycle. Fibril formation was validated by transmission electron microscopy (TEM) and Thioflavin T fluorescence.[34],[35]
# The Supplementary material contains detailed treatment regimens.
# Blood was collected in ethylenediaminetetraacetic acid (EDTA) tubes, plasma aliquoted and stored at −80°C. IL-1β was quantified by ELISA (R&D Systems). Extended methods are in the Supplementary material.
# Mice traversed a 0.5 cm × 1 m beam apparatus; latency to cross was measured at 4, 6, 8 and 10 months post-PFF-Syn.
# Accelerated rotarod (5–40 rpm over 5 min) assessed latency to fall at 4, 6, 8 and 10 months post-PFF-Syn as previously described.[17],[18]
# At 11 months post-PFF injection, mice were scanned with ^18F-DPA-714 PET/MRI. Regions of interest (ROIs) were anatomically defined in striatum using MRI guidance. SUVRs and T1 relaxation times were calculated. Extended imaging parameters are in the Supplementary material.
# (A) Schematic of the PFF-Syn study [created in BioRender. […] (B–E) Rotarod and (F–I) balance-beam testing of mice at 4, 6, 8 and 10 months post PFF-Syn or saline injection (n = 8–10/group). […] (K) Time-activity curves for ^18F-DPA-714 generated from dynamic imaging and presented as standard uptake value ratio (SUV-ratio) from ipsilateral to contralateral hemispheres (n = 4–8/group). (L) Sixty minute SUV-ratio time point for data in L. (M) Representative autoradiography images for ^18F-DPA-714 from brain slices taken following PET imaging. (N) Quantitation of ^18F-DPA-714 autoradiography, and blockade of signal with PK11195. (O) Representative immunohistochemistry for microglial marker ionized calcium-binding adaptor molecule 1 (Iba1; green) from brain slices taken following PET imaging; cell nuclei 4′,6-diamidino-2-phenylindole (DAPI; blue). Square dotted line box in M represents approximate region imaged; magnification ×40, scale bars = 20 μm. (P) Ipsilateral striatal dopamine quantitation, and (Q) plasma interleukin (IL)-1β concentrations in mice after completion of PET imaging experiments (n = 4–8/group).
# [7] = target: CYP3A4 (Homo sapiens, UniProt P08684); experiment: CYP3A4 inhibition
# Sequence of CYP3A4 (P08684 whole entry): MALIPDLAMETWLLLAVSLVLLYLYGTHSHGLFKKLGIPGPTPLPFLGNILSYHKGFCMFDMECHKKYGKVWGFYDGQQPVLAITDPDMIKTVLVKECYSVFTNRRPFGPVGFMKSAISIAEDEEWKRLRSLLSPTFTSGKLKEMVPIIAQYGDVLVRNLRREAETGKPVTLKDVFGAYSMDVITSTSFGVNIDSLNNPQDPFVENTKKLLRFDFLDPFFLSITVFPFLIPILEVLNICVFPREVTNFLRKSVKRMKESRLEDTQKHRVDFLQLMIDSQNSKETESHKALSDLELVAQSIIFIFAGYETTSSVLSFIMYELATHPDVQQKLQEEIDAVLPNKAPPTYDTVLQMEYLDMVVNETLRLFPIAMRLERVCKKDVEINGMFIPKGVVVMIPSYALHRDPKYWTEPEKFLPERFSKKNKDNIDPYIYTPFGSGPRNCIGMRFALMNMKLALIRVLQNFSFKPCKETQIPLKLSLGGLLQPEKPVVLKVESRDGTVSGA
# Experimental: as §3
# PPB – Plasma Protein Binding
# as §4
# [8] = test system: 95 targets (Eurofins Cerep panel); experiment: Off-target screen, Eurofins Cerep panel (binding, enzyme and uptake assays); conditions: 10uM
# Experimental: (10uM) was screened for inhibition or activation activities at 95 targets (Eurofins Cerep panel) in
# binding and enzyme and uptake assays. […]
# [9] = target: T1, NLRC4 inflammasome (Mus musculus, UniProt Q3UP24); experiment: NLRC4 inflammasome activation by S. typhimurium in bone marrow macrophages; assay type: cell-based; conditions: C57BL/6J bone marrow macrophages stimulated with S. typhimurium; n=2
# T1 construct: marrow cells were isolated from C57BL/6J mice and cultured macrophages stimulated with S; endogenous in cells; host or cells: bone-marrow-derived macrophages from C57BL/6J mice
# T1 sequence (Q3UP24 whole entry): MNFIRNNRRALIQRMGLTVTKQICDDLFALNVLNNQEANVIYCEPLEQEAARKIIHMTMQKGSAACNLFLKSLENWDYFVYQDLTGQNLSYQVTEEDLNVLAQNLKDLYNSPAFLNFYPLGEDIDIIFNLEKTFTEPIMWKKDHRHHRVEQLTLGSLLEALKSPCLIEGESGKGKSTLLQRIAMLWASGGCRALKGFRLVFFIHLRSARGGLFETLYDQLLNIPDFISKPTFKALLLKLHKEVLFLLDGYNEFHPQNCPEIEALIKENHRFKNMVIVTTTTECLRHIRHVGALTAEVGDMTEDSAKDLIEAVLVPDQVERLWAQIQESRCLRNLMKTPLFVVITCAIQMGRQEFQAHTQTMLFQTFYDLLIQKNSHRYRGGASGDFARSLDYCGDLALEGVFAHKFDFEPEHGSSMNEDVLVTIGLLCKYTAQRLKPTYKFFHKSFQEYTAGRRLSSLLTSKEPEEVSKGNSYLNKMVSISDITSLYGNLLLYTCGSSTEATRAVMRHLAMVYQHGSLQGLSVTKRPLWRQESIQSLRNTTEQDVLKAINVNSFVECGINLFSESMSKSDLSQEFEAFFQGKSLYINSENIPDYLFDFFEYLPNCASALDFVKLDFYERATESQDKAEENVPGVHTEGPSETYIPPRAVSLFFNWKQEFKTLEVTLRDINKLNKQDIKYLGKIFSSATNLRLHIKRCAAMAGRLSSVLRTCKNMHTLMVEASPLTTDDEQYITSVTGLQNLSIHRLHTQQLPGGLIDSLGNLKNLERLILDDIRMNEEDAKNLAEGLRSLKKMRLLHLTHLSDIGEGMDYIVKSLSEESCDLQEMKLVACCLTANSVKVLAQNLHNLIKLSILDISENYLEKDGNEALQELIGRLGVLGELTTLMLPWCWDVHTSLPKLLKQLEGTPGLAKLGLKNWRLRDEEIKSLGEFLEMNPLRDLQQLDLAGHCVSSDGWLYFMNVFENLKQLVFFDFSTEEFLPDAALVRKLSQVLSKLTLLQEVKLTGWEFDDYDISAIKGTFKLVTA
# Description: (§1) marrow cells were isolated from C57BL/6J mice and cultured macrophages stimulated with S.
# (§2) typhimurium (S.typ) and poly(dA:dT) to activate [A] NLRC4 and [B] AIM2 inflammasomes. No […]
# [10] = Single-dose pharmacokinetics (plasma and brain) in C57BL/6J mice; assay type: in vivo, mouse
# [11] = test system: healthy subjects; design: method as in NCT04015076; conditions: randomized, double-blinded, placebo-controlled, single and multiple ascending dose, ref NCT04015076; cited from earlier work
# [12] = target: T2, AIM2 inflammasome (Mus musculus, UniProt Q91VJ1); experiment: AIM2 inflammasome activation by poly(dA:dT) in bone marrow macrophages; assay type: cell-based; conditions: C57BL/6J bone marrow macrophages stimulated with poly(dA:dT); n=2
# T2 construct: marrow cells were isolated from C57BL/6J mice and cultured macrophages stimulated with S; endogenous in cells; host or cells: bone-marrow-derived macrophages from C57BL/6J mice
# T2 sequence (Q91VJ1 1-354): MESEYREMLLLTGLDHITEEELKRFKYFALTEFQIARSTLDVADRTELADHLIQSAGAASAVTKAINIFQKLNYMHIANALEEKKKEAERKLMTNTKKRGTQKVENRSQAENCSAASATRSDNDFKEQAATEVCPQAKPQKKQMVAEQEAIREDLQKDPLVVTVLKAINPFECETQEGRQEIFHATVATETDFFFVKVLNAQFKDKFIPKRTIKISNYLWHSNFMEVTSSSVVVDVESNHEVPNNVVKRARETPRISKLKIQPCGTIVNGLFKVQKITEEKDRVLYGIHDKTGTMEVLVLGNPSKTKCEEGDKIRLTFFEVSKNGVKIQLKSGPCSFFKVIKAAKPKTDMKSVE
# Description: as §1, §2
# [13] = 6, 8 and 10 months, both preventative and therapeutic groups
# Sequence of hERG (human ether-a-go-go K+ ion channel) (Q12809 whole entry): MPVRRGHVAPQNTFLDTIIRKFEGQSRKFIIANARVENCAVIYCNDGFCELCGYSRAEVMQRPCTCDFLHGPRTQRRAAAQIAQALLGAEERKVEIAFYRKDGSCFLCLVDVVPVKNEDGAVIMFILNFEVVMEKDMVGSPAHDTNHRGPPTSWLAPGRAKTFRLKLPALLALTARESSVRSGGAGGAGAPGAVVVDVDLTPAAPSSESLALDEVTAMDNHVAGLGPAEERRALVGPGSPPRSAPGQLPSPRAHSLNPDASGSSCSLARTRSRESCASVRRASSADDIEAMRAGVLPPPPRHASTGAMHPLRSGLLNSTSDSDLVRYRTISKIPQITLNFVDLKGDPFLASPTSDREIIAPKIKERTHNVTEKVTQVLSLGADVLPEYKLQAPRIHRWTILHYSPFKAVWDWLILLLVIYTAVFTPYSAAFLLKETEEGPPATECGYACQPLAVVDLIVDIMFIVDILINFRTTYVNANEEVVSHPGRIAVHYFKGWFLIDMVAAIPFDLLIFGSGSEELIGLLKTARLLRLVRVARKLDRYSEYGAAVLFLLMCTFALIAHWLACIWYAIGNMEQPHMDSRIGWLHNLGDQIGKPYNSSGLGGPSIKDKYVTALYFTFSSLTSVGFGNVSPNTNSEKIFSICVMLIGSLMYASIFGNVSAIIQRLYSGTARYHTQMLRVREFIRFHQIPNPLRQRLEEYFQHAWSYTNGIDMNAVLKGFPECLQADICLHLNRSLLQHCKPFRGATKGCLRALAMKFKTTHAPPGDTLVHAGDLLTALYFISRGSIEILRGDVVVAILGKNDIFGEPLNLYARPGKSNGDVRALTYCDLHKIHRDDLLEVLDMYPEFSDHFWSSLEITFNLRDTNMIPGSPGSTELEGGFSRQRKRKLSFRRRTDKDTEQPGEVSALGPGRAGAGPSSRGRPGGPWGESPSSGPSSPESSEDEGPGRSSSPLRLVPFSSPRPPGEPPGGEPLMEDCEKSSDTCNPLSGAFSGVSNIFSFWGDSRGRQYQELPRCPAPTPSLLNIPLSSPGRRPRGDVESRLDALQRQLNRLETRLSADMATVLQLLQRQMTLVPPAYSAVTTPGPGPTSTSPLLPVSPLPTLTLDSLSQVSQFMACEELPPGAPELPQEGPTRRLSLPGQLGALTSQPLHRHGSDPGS
# Sequence of CYP2C9 (P11712 whole entry): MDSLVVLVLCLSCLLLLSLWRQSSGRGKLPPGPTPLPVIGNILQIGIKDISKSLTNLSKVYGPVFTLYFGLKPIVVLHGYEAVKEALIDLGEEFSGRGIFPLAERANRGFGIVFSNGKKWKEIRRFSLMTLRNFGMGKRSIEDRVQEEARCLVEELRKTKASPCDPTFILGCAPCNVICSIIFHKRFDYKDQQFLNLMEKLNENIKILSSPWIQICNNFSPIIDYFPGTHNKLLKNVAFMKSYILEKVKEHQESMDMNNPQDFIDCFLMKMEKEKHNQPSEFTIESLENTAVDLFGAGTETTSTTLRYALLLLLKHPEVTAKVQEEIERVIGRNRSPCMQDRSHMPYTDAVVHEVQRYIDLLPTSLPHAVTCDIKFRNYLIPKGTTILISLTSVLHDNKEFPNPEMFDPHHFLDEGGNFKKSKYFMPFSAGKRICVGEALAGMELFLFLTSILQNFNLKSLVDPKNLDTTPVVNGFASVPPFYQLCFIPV
structure (smiles),measurement,setting,value
CC(C)n1ccc(S(=O)(=O)NC(=O)Nc2c3c(cc4c2CCC4)CCC3)n1 [MCC7840],IC50,[1],46 µM
same,half-life,[2],> 2.42 h
same,inhibition at 30 µM,[3],4.5 ± 3.1%
same,Mouse % PS,[4],89%
same,ED50,[5]; read-out: ED50 for dopamine loss (striatal dopamine content),~2.2 mg/kg
same,ED50,[5]; read-out: ED50 for motor behaviour (amphetamine-induced ipsilateral rotations),~0.9 mg/kg
same,Amphetamine-induced rotations,"[5]; all doses (1, 3, 10 mg/kg p.o. daily), Day 21",significantly reduced
same,Striatal dopamine and its metabolites DOPAC and HVA,"[5]; all treatment groups (1, 3, 10 mg/kg p.o. daily), Day 28",significant preservation
same,Rotarod motor deficit,"[6]; 4 months post-injection, preventative (pre-PFF) group, 0.3 mg/ml drinking water",significantly attenuated
same,Balance beam crossing latency,"[6]; 4 months, pre-treated mice",significantly reduced
same,Balance beam performance,[6]; [13],improved balance beam performance
same,Rotarod progressive motor decline,[6]; [13],significantly protected
same,Striatal dopamine loss and reduced metabolite levels,"[6]; both dosing regimens, after PET imaging",significantly protected
same,18F-DPA-714 PET signal,"[6]; both preventative and therapeutic groups, PET/MRI at 12 months (11 months in methods)",significantly reduced
same,PFF-Syn-induced plasma IL-1β increase,[6]; preventative group,fully suppressed
same,Reduction of PFF-Syn-induced plasma IL-1β,[6]; therapeutic group (from 4 months post-PFF),~70%
same,IC50,[7],> 50 µM
same,Inhibition or activation activity at any of 95 off-targets,[8],≤ 35%
same,Inhibitory activity at NLRC4 inflammasome,[9],not active
same,Tolerability in single-dose pharmacokinetic studies,"[10]; fasted male C57BL/6J mice, i.v. 4 mg/kg or oral 20 mg/kg",well tolerated
same,bioavailability,"[10]; male, C57BL/6J, mouse, plasma, oral, mice, p.o. 20 mg/kg vs i.v. 4 mg/kg",68%
same,Kp at 2 h,"[10]; male, C57BL/6J, mouse, mice, oral administration 20 mg/kg, total brain concentration, read-out: Brain-to-plasma ratio",~0.035
same,Oral half-life,"[10]; mice, p.o. 20 mg/kg, plasma",5.0 h
same,"Safety, tolerability and pharmacokinetics in Phase I",[11],"excellent safety, tolerability and pharmacokinetic profile"
same,Inhibitory activity at AIM2 inflammasome,[12],not active
